Legend:
SERT = SERT (Homo sapiens, UniProt P31645); experiment: Uptake into HEK293 cells overexpressing SERT (uptake ratio and concentration-dependent uptake); details: for Clint ± SEM: SERT, intrinsic clearance, quotient of vmax and Km;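 on Uptake Ratio by Transporter SERT: ratio of uptake in SERT cells over empty-vector control cells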;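 on all read-outs here: incubation at 37 °C, intracellular compound quantified by HPLC-MS/MS after cell lysis, uptake normalized to total protein measured by bicinchoninic acid assay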
DAT = DAT (Homo sapiens, UniProt Q01959); experiment: Uptake into HEK293 cells overexpressing DAT (uptake ratio and concentration-dependent uptake); details: intrinsic clearance, quotient of vmax and Km
OCT3 = biological target: T1, OCT3 (Homo sapiens, UniProt O75751); experiment: Uptake into HEK293 cells overexpressing OCT3 (uptake ratio and concentration-dependent uptake); details: intrinsic clearance, quotient of vmax and Km
T1 sequence (O75751 1-556): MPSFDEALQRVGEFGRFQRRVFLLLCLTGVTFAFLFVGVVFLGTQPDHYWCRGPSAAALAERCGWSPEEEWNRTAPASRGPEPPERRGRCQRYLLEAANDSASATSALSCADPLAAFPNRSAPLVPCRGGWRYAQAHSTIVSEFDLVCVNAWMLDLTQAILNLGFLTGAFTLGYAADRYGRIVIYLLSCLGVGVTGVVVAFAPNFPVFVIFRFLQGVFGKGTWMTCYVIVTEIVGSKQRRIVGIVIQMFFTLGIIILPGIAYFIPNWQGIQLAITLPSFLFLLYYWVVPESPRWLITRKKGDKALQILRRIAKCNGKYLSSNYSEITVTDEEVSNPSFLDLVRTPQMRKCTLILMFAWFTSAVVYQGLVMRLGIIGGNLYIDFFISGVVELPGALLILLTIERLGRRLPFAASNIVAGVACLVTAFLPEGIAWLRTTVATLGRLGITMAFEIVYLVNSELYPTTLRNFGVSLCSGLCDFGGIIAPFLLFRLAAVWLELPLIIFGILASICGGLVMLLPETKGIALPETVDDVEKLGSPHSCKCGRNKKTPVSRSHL

OCT1 = biological target: T2, OCT1 (Homo sapiens, UniProt O15245); experiment: Uptake into HEK293 cells overexpressing OCT1 (uptake ratio and concentration-dependent uptake); details: intrinsic clearance, quotient of vmax and Km
T2 sequence (O15245 1-554): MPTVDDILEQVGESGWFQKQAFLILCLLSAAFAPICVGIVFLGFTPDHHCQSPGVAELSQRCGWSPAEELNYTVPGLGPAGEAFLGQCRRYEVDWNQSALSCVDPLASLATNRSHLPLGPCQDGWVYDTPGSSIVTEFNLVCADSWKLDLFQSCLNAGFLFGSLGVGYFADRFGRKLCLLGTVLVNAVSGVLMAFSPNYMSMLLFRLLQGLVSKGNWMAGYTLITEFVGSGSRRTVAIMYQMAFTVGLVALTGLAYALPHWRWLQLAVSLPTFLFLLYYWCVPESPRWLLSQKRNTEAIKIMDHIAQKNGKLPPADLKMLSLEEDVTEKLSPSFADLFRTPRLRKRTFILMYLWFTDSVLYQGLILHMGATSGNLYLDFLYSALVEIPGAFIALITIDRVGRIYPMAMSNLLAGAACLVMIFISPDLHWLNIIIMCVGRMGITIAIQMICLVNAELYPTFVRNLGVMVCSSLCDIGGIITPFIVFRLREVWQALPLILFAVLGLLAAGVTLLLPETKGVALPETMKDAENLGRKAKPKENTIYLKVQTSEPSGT

OCT2 = biological target: T3, OCT2 (Homo sapiens, UniProt O15244); experiment: Uptake into HEK293 cells overexpressing OCT2 (uptake ratio and concentration-dependent uptake); details: for Vmax ± SEM: concentration-dependent net uptake, Michaelis–Menten; for Clint ± SEM: intrinsic clearance, quotient of vmax and Km
T3 sequence (O15244 1-555): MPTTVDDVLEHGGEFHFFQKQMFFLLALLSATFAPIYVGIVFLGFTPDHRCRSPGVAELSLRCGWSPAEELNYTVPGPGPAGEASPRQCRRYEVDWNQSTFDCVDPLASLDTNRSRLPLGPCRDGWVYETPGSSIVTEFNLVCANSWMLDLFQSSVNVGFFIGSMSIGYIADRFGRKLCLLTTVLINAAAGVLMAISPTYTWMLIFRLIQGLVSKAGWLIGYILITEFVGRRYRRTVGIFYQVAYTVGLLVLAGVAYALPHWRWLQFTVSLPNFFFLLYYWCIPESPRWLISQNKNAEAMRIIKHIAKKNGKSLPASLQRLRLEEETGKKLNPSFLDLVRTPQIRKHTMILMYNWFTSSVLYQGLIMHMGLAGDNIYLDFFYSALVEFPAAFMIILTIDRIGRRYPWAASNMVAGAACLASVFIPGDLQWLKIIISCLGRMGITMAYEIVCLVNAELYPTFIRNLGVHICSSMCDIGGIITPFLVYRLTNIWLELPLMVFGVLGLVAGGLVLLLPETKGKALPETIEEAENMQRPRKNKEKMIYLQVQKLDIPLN

NET = NET (Homo sapiens, UniProt P23975); experiment: Uptake into HEK293 cells overexpressing NET (uptake ratio and concentration-dependent uptake); details: intrinsic clearance, quotient of vmax and Km
[1] = substrate: N=C(N)NCc1cccc(I)c1; experiment: cells, lysate or membranes; details: concentration-dependent net uptake, Michaelis–Menten, pH 7.4
[2] = substrate: CNCCc1c[nH]c2ccc(O)cc12; experiment: cells, lysate or membranes; details: concentration-dependent net uptake, Michaelis–Menten, pH 7.4
[3] = substrate: NCCc1c[nH]c2ccc(O)cc12; experiment: cells, lysate or membranes; details: concentration-dependent net uptake, Michaelis–Menten, pH 7.4

Chain of SERT (P31645 whole entry): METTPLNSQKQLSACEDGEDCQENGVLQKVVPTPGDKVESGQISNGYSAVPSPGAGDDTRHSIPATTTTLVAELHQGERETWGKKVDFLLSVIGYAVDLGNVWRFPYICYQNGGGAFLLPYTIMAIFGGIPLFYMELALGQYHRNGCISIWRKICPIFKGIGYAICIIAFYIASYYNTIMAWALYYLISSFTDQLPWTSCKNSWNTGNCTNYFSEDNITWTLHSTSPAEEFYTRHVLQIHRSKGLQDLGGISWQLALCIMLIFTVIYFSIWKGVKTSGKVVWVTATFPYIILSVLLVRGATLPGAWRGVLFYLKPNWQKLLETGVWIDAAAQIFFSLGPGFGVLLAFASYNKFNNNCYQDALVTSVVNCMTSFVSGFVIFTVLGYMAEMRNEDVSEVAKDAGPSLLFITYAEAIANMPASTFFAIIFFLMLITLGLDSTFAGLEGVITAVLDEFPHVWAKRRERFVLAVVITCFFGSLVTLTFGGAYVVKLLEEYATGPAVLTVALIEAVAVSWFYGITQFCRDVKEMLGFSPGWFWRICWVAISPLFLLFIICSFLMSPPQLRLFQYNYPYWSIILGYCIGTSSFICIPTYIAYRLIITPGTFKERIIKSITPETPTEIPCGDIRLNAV
Chain of NET (P23975 whole entry): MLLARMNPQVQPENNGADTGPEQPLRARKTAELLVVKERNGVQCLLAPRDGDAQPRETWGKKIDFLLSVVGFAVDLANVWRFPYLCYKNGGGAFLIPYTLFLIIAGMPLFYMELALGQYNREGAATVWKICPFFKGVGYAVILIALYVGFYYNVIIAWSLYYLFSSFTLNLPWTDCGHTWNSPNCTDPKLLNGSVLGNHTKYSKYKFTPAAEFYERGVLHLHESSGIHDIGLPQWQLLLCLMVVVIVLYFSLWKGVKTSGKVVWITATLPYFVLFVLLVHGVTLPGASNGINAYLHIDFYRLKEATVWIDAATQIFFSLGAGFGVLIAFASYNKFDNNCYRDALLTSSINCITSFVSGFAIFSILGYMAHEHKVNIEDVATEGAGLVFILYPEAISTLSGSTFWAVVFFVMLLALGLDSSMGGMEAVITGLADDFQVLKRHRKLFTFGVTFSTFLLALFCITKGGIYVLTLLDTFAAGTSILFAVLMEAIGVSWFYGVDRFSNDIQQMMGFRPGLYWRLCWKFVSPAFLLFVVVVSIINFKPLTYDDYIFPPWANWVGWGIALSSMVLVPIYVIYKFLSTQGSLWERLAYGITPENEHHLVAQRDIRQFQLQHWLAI
Chain of DAT (Q01959 whole entry): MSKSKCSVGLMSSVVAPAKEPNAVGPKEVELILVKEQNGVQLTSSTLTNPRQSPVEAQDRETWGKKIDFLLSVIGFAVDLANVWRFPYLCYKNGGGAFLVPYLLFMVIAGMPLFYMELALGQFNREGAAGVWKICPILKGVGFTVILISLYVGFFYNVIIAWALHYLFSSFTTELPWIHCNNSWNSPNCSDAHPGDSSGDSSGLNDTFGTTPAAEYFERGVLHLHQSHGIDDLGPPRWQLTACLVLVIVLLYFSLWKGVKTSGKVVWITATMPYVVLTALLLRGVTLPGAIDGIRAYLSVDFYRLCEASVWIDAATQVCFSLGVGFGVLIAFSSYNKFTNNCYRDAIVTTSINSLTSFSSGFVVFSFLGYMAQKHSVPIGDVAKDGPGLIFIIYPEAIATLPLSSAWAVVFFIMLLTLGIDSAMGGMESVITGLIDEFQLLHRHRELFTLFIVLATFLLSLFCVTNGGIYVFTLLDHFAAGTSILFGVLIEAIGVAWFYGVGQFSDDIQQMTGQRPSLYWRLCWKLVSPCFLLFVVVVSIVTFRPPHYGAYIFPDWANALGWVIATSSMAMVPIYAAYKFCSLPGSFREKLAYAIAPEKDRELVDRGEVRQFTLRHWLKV

## NCc1ccc(O)cc1 [4-Hydroxybenzylamine]
SERT
  Uptake Ratio by Transporter SERT: 1.55

## NCCc1c[nH]c2ccc(O)cc12 [Serotonin]
DAT
  Clint ± SEM: 77.39 mL × g Protein^−1 × min^−1
OCT3
  Clint ± SEM: 1.17 mL × g Protein^−1 × min^−1
SERT
  Clint ± SEM: 256.9 mL × g Protein^−1 × min^−1
OCT1
  Clint ± SEM: 21.91 mL × g Protein^−1 × min^−1
OCT2
  Vmax ± SEM: 31,565 pmol × mg Protein^−1 × min^−1
  Clint ± SEM: 46.04 mL × g Protein^−1 × min^−1
NET
  Clint ± SEM: 18.83 mL × g Protein^−1 × min^−1

## CNCCc1ccccc1 [N-Methylphenylethylamine]
SERT
  Uptake Ratio by Transporter SERT: 2.29

## C[n+]1ccc(-c2ccccc2)cc1 [MPP+, reference compound]
SERT
  Uptake Ratio by Transporter SERT: 50.42

## CN(C)CCc1ccc(O)cc1 [Hordenine]
SERT
  Uptake Ratio by Transporter SERT: 2.02

## CNCC(O)c1ccccc1 (stereo not shown) [Halostachine]
SERT
  Uptake Ratio by Transporter SERT: 2.26

## CNCCc1ccc(O)cc1 [N-Methyl p-tyramine]
SERT
  Uptake Ratio by Transporter SERT: 2.46

## NCCc1c[nH]c2ccccc12 [Tryptamine]
SERT
  Uptake Ratio by Transporter SERT: 4.88
  Clint ± SEM: 22.0 mL × g Protein^−1 × min^−1

## CNCC(O)c1ccc(O)c(OC)c1 (stereo not shown) [Metanephrine]
SERT
  Uptake Ratio by Transporter SERT: 1.97

## NCCc1cccc(O)c1 [m-Tyramine]
SERT
  Uptake Ratio by Transporter SERT: 3.08

## COc1cc(C(O)CN)ccc1O (stereo not shown) [Normetanephrine]
SERT
  Uptake Ratio by Transporter SERT: 1.91

## CNCCc1ccc(O)c(O)c1 [Deoxyepinephrine]
SERT
  Uptake Ratio by Transporter SERT: 13.89

## COc1cc(CCN)ccc1O [3-Methoxy-p-tyramine]
SERT
  Uptake Ratio by Transporter SERT: 4.45

## NCC(O)c1ccccc1 (stereo not shown) [Bisnorephedrine]
SERT
  Uptake Ratio by Transporter SERT: 1.45

## NC[C@H](O)c1ccc(O)c(O)c1 [(-)-Norepinephrine]
NET
  Clint ± SEM: 47.8 mL × g Protein^−1 × min^−1

## CNCC(O)c1ccc(O)cc1 (stereo not shown) [Synephrine]
SERT
  Uptake Ratio by Transporter SERT: 1.53

## CNCCc1c[nH]c2ccc(O)cc12 [N-Methyl serotonin]
OCT3
  Clint ± SEM: 9.68 mL × g Protein^−1 × min^−1
SERT
  Clint ± SEM: 337.7 mL × g Protein^−1 × min^−1
OCT1
  Clint ± SEM: 80.52 mL × g Protein^−1 × min^−1
OCT2
  Vmax ± SEM: 11,918 pmol × mg Protein^−1 × min^−1
  Clint ± SEM: 46.93 mL × g Protein^−1 × min^−1

## NCCc1ccc(O)c(O)c1 [Dopamine]
DAT
  Clint ± SEM: 78.9 mL × g Protein^−1 × min^−1

## COc1ccc(CCN)cc1O [4-Methoxy-m-tyramine]
SERT
  Uptake Ratio by Transporter SERT: 3.86

## NC1CC1c1ccccc1 (stereo not shown) [Tranylcypromin, reference compound]
SERT
  Uptake Ratio by Transporter SERT: 2.37

## COc1ccc2[nH]cc(CCN)c2c1 [5-Methoxy-Tryptamine]
SERT
  Uptake Ratio by Transporter SERT: 3.46

## CN[C@@H]1CCc2[nH]c3ccc(C(N)=O)cc3c2C1 [(R)-Frovatriptan, reference compound]
SERT
  Clint ± SEM: 38.48 mL × g Protein^−1 × min^−1

B1: OCT3 (Homo sapiens) (protein)
chain: T1 sequence (O75751 1-556)
[1]; other: OCT3
  Km: 10.5 ± 1.9 µM
  Vmax: 0.00169 µmol/min/mg
  Vmax/Km: 161 µL/min/mg
[2]; other: OCT3
  Km: 18.78 ± 12.42 µM
  Vmax: 181.7 pmol × mg Protein^−1 × min^−1

B2: OCT1 (Homo sapiens) (protein)
chain: T2 sequence (O15245 1-554)
[3]; other: OCT1
  Km: 235.6 µM
  Vmax: 5161 pmol × mg Protein^−1 × min^−1
[1]; other: OCT1
  Km: 16.6 ± 3.7 µM
  Vmax: 0.0023 µmol/min/mg
  Vmax/Km: 138 µL/min/mg
[2]; other: OCT1
  Km: 27.78 ± 9.19 µM
  Vmax: 2237 pmol × mg Protein^−1 × min^−1

B3: OCT2 (Homo sapiens) (protein)
chain: T3 sequence (O15244 1-555)
[3]; other: OCT2
  Km: 685.6 µM
  Vmax: 31565 pmol × mg Protein^−1 × min^−1
[1]; other: OCT2
  Km: 13.3 ± 2.4 µM
  Vmax: 0.00204 µmol/min/mg
  Vmax/Km: 152 µL/min/mg
[2]; other: OCT2
  Km: 253.9 ± 54.98 µM
  Vmax: 11918 pmol × mg Protein^−1 × min^−1

Reference: publication PMC8657982, “Overlap and Specificity in the Substrate Spectra of Human Monoamine Transporters and Organic Cation Transporters 1, 2, and 3” (International Journal of Molecular Sciences, 2021)
